In patent publication US10889562B2, “Prodrugs of Nrf2 activating compounds and uses thereof” (Rigel Pharmaceuticals, Inc., priority 2018, dated 2021):

How the values were obtained:
[1] = Glutathione depletion assay (Michael reaction with reduced glutathione followed by 1H NMR); settings: 2 equiv. reduced glutathione, d6-DMSO, 35° C.
Text: Accordingly, the present compounds may be assessed in vitro by reaction with glutathione as follows:
(with the top securely fastened).
In all the above cases, dis-appearance of the alkene proton signals from the starting material are used to determine the extent of Michael reaction with glutathione.
As would be understood by those of skill in the art, the above experiments can be repeated by varying the equivalents of reduced glutathione (0.5 to 2 equivalents); the reactions can also be run in a mixture of d6-DMSO and D2O; and the temperature of the reaction can also be varied from room temperature to 35° C. (35° C. being used to mimic body temperature). As used herein “majority reaction” means a greater than 50% reduction in alkene proton signal as observed by ^1H NMR.

[2] = system: experimental autoimmune encephalomyelitis (EAE); experiment: Experimental autoimmune encephalomyelitis (EAE) animal model; type: in vivo, mice (C57BL/6); settings: mice, dosed at 60 mg/kg beginning on the day of immunization
[3] = system: NrF2 (Nuclear factor (erythroid-derived 2)-like 2); experiment: NrF2 activation in a whole cell nuclear translocation assay; type: cell-based
Experimental: Compounds are tested in a NrF2 (Nuclear factor (erythroid-derived 2)-like 2) translocation assay by adapting the methods set forth in U.S. Pat. No. 8,101,373, the disclosure of which is incorporated herein by reference. A result of NrF2 activation in the assay by the present compounds is an indication of their anti-inflammatory activity.
In addition to monomethyl fumarate and dimethyl fumarate, bardoxolone methyl may be used as a positive control.

Row | EC50 [3] [µM] | Compound | time to majority reaction with glutathione (greater than 50% reduction in alkene proton signal by 1H NMR) [1] [h] | onset of disease paralysis [2]
1 |  | COC(=O)/C=C/n1nnn(C)c1=O [methyl (E)-3-(4-methyl-5-oxo-4,5-dihydro-1H-tetrazol-1-yl)acrylate] | ≤ 30 | 
2 |  | COC(=O)/C=C/n1nn[nH]c1=O [methyl (E)-3-(5-oxo-4,5-dihydro-1H-tetrazol-1-yl)acrylate] | ≤ 30 | significantly prevents the onset of disease paralysis
3 | ~127 | COC(=O)/C=C/C(=O)O [monomethylfumarate] |  | 
